These are literature values, as cited in patent publication US20230000903A1, “METHODS AND SYSTEMS FOR NITRIC OXIDE THERAPY FOR THE TREATMENT OR PREVENTION OF RESPIRATORY INFECTIONS” (KNOW Bio, LLC, priority 2020, published 2023).

Each structure is given as a SMILES string.

Turning to `[N]=O` [NO, nitric oxide], for the setting “beyond which it is inactivated by binding to thiols or heme of hemoglobin”, the “radius of action from its site of origin” value was “approximately 200 microns”. The “half-life in the body” value (in the body) is “less than 6 seconds”. Further, for the setting “urine, nitrate as predominant metabolite, inhaled dose”, the “share of the nitric oxide dose inhaled excreted in the urine as nitrate” value is given as “more than 70%”.
